Patent US20080051463A1, “ANTHRACENE COMPOUNDS AND THEIR USE FOR TREATING BENIGN AND MALIGNANT TUMOR DISORDERS” (AETERNA ZENTARIS GmbH, priority 2006, published 2008)
≈ marks a conversion by molar mass, not a printed value. Where “and” joins values, the source holds several entries; their conditions need not be identical. Equal values may be shown once.

How the values were obtained:
[1] = system: lung carcinoma cell line NCI-H460; assay: Proliferation test (cellular dehydrogenase activity), NCI-H460; format: cell-based; settings: Homo sapiens
Excerpt: (§1) The antiproliferative activity of the compounds 1, 2, 4, 6, 7, 9, 10, 11, 12 and 13 according to the invention was investigated in a proliferation test performed on established tumor cell lines (D. A. Scuderio et al. Cancer Res. 1988, 48: 4827-4833).
(§2) The test used determines the cellular dehydrogenase activity and makes it possible to determine cell viability and determine cell number indirectly.
(§3) The cell lines used are the human cervical carcinoma cell line KB/HeLa (ATCC CCL17), the ovarian adenocarcinoma cell line SKOV-3 (ATCC HTB77), the human glioblastoma cell line SF-268 (NCI-503138) and the lung carcinoma cell line NCI-H460 (NCI-503473). In addition, an RKOp27 cell system was used for investigating the cell cycle-specific effect of the substance (M. Schmidt et al. Oncogene 2000, 19(20): 2423-9).

[2] = system: RKOp27 human colon carcinoma cells; assay: Proliferation test, RKOp27 cell system without p27kiP1 expression; format: cell-based; settings: RKOp27 without expression of p27kiP1
Excerpt: as §1, §2, §3
(§4) RKO is a human colon carcinoma line in which expression of the cell cycle inhibitor p27^kiP1 can be induced using the ecdysone expression system and lead to cell cycle arrest specifically in […].
(§5) By contrast, cell cycle-specific substances, such as, for example, tubulin inhibitors, are only cytotoxic when cells are not arrested and the cell cycle is passed through.

[3] = system: bovine tubulin; assay: Inhibition of the polymerization of bovine tubulin (in vitro); format: biochemical; settings: for Inhibition at 10 μg/ml [%]: tubulin with 30% associated proteins (MAPs), repeat values
Excerpt: In this test, tubulin purified by polymerization and depolymerization cycles is used, which is polymerized by addition of GTP and heating.
Table 1 states the %-inhibition values and Table 2 states the EC50 values of polymerization inhibition of tubulin with 30% associated proteins (MAPs).

[4] = system: human glioblastoma cell line SF-268; assay: Proliferation test (cellular dehydrogenase activity), SF-268; format: cell-based
Excerpt: as §1, §2, §3

[5] = system: ovarian adenocarcinoma cell line SKOV-3; assay: Proliferation test (cellular dehydrogenase activity), SK-OV-3; format: cell-based; settings: Homo sapiens
Excerpt: as §1, §2, §3

[6] = system: human cervical carcinoma cell line KB/HeLa; assay: Proliferation test (cellular dehydrogenase activity), KB/HeLa; format: cell-based
Excerpt: as §1, §2, §3

[7] = system: RKOp27 human colon carcinoma cells, p27kiP1 induced; assay: Proliferation test, RKOp27 cell system with induced p27kiP1 expression; format: cell-based; settings: RKOp27 with induced expression of p27kiP1, read-out: RKOP27ind EC50
Excerpt: as §1, §2, §3, §4, §5

[8] = system: KB/HeLa cells; assay: Cell cycle analysis (G2/M arrest) in KB/HeLa cells; format: cell-based; settings: Homo sapiens, 24 h, 24 hours at 37° C., 0.1-1000 nM, read-out: EC50 [nM] (50% cells in G2/M)
Experimental: For the cell cycle analysis, KB/HeLa cells (ATCC CCL17) were treated with different concentrations (0.1-1000 nM) of the test substances at 37° C. for 24 hours.
The percentage of cells arrested in the G2/M phase of the cell cycle after treatment with compounds according to the invention and selected reference substances is shown in Table 9 below. The results were analysed using special analytical software (ModFit™).

[9] = system: murine P388 cell line; assay: XTT antiproliferative test, P388; format: cell-based; settings: P388 wild type
Excerpt: (§6) For further characterization, the compounds 6 and 7 according to the invention were investigated with regard to multidrug-resistant (MDR) cell lines as compared with the nonresistant wild-type cell lines.
(§7) The murine P388 cell line (methylcholanthrene-induced lymphoid neoplasm) [R. Supino et al.; Inst. Nazionale per lo Studio e las cura die Tumori; Milan)] and the doxorubicin-resistant P388 cell line (NSC-123127) were also included as test systems.

[10] = system: doxorubicin-resistant P388 cell line; assay: XTT antiproliferative test, doxorubicin-resistant P388; format: cell-based, murine
Excerpt: as §6, §7

[11] = system: resistant line LT12/mdr; assay: XTT antiproliferative test, LT12/mdr; format: cell-based
Excerpt: as §6
(§8) The cell lines which were investigated are the murine cell line L1210 (ATCC CCL219), the acute myeloid leukaemia cell line LT12 (De Vries et al.; University Rotterdam) and the resistant lines L1210/VCR (Asta Medica Laboratory) and LT12/mdr (De Vries et al.; University Rotterdam).

[12] = system: resistant line L1210/VCR; assay: XTT antiproliferative test, L1210/VCR; format: cell-based, murine
Excerpt: as §6, §8

[13] = system: murine cell line L1210; assay: XTT antiproliferative test, L1210; format: cell-based; settings: L1210 wild type
Excerpt: as §6, §8

[14] = system: T1, porcine brain tubulin; assay: Inhibition of the polymerization of porcine brain tubulin (turbidimetric); format: biochemical; settings: porcine brain tubulin with about 15% MAPs, GTP, 37° C.
T1 construct: In addition to tubulin, the protein used comprises about 15% of associated proteins (MAPs)
Experimental: b) In an in vitro test, the compounds 1, 2, 4 and 7 were tested for inhibition of the polymerization of porcine brain tubulin. In this test, tubulin purified by polymerization and depolymerization cycles is used (Shelanski et al. Proc. Natl. Acad. Sci. U.S.A. 1973, 70, 765-768 modified according to Vater et al. Acta Histochem. Suppl. 1986, 33, 123-129), which is polymerized by addition of GTP and heating to 37° C. In addition to tubulin, the protein used comprises about 15% of associated proteins (MAPs). The measurement values were determined turbidimetrically according to Gaskin et al. J. Mol. Biol. 89 (1974) 737-755.
Table 3 states the EC50 value of the polymerization inhibition.

[15] = system: acute myeloid leukaemia cell line LT12; assay: XTT antiproliferative test, LT12; format: cell-based; settings: LT12 wild type
Excerpt: as §6, §8

Row | SMILES | EC50 [1] | EC50 [2] | Inhibition at 10 μg/ml [%] [3] | melting point | EC50 [6] | EC50 [7] | other results
1 | O=C(C=C1c2ccccc2C(=O)c2ccccc21)c1cccc(O)c1 [Compound 12, 10-[2-(3-hydroxy-phenyl)-2-oxo-ethylidene]-10H-anthracen-9-one] | 0.61 mg/L (≈ 1.87 µM) | 0.63 mg/L (≈ 1.93 µM) | 83.1% and 95.0% and 92.7% and 86.9% | 185 °C | 1.4 mg/L (≈ 4.29 µM) | > 3.16 mg/L | EC50 [4]: 2.22 mg/L (≈ 6.8 µM); EC50 [5]: 3.03 mg/L (≈ 9.28 µM)
2 | O=C1c2ccccc2C(=CC(=O)N2CCSCC2)c2ccccc21 [Compound 3, 10-(2-oxo-2-thiomorpholin-4-ylethylidene)-10H-anthracen-9-one] | – | – | – | 177 to 178 °C | – | – | –
3 | COc1cccc(C(=O)C=C2c3ccccc3C(=O)c3ccccc32)c1 [Compound 13, 10-[2-(3-methoxy-phenyl)-2-oxo-ethylidne]-10H-anthracen-9-one] | 1.16 mg/L (≈ 3.41 µM) | 1.1 mg/L (≈ 3.23 µM) | 72.6% and 85.9% and 87.3% and 93.7% | – | 1.89 mg/L (≈ 5.55 µM) | > 3.16 mg/L | –
4 | CC(=O)O[C@H]1C(=O)[C@@]2(C)[C@H]([C@H](OC(=O)c3ccccc3)[C@]3(O)C[C@H](OC(=O)[C@H](O)[C@@H](NC(=O)c4ccccc4)c4ccccc4)C(C)=C1C3(C)C)[C@]1(OC(C)=O)CO[C@@H]1C[C@@H]2O [Paclitaxel] | – | – | – | – | – | – | EC50 [8]: 26.9 nM
5 | COc1ccc(C(=O)C=C2c3ccccc3C(=O)c3ccccc32)c(O)c1OC [Compound 8, 10-[2-(2-hydroxy-3,4-dimethoxy-phenyl)-2-oxo-ethylidene]-10H-anthracen-9-one] | – | – | – | 176 to 178 °C | – | – | –
6 | O=C(O)C=C1c2ccccc2C(=O)c2ccccc21 [Compound 17, (10-oxo-10H-anthracen-9-ylidene)-acetic acid] | – | – | – | 180 to 182 °C | – | – | –
7 | O=C(C=C1c2ccccc2C(=O)c2ccccc21)c1ccccc1 [Compound 18, 10-(2-oxo-2-phenyl-ethylidene)-10H-anthracen-9-one] | – | – | 54.9% and 69.9% and 79.8% and 71.0% | 128 °C | – | – | –
8 | COc1ccc(C(=O)C=C2c3ccccc3C(=O)c3ccccc32)cc1 [Compound 7, 10-[2-(4-methoxy-phenyl)-2-oxo-ethylidene]-10H-anthracen-9-one] | 0.025 mg/L (≈ 0.0734 µM) | 0.027 mg/L (≈ 0.0793 µM) | 99.1% and 100.0% | 120 to 122 °C | 0.02 mg/L (≈ 0.0588 µM) | > 3.16 mg/L | IC50 ([9]; Mus musculus, P388, XTT): 0.014 mg/L (≈ 0.0411 µM); P388 IC50 ([9]; XTT): 0.015 mg/L; IC50 ([10]; Mus musculus, P388, XTT, read-out: P388ADR IC50): 0.016 mg/L (≈ 0.047 µM); P388ADR IC50 ([10]; XTT): 0.018 mg/L; EC50 of polymerization inhibition of tubulin ([3]; bovine tubulin with 30% associated proteins (MAPs)): 1.38 mg/L and 1.50 mg/L; IC50 ([11]; Rattus norvegicus, LT12, XTT, read-out: LT12mdr IC50): 0.015 mg/L (≈ 0.0441 µM); LT12mdr IC50 ([11]; XTT): 0.020 mg/L; IC50 ([12]; Mus musculus, L1210, XTT, read-out: L1210VCR IC50): 0.017 mg/L (≈ 0.0499 µM); L1210VCR IC50 ([12]; XTT): 0.018 mg/L; IC50 ([13]; Mus musculus, L1210, XTT): 0.016 mg/L (≈ 0.047 µM); L1210 IC50 ([13]; XTT): 0.017 mg/L; EC50 [4]: 0.02 mg/L (≈ 0.0588 µM); EC50 of the polymerization inhibition [14]: 0.5 mg/L; EC50 [5]: 0.02 mg/L (≈ 0.0588 µM); IC50 ([15]; Rattus norvegicus, LT12, XTT): 0.015 mg/L (≈ 0.0441 µM); LT12 IC50 ([15]; XTT): 0.019 mg/L
